{"source": "patent US7429599B2", "about": "“Methods for treating or preventing an inflammatory or metabolic condition or inhibiting JNK” (Signal Pharmaceuticals, LLC, priority 2000, dated 2008)", "data": [{"target": "T1, His6-JNK2 (Homo sapiens, UniProt P45984)", "T1 construct": "His6 (N)", "T1 sequence (P45984 whole entry)": "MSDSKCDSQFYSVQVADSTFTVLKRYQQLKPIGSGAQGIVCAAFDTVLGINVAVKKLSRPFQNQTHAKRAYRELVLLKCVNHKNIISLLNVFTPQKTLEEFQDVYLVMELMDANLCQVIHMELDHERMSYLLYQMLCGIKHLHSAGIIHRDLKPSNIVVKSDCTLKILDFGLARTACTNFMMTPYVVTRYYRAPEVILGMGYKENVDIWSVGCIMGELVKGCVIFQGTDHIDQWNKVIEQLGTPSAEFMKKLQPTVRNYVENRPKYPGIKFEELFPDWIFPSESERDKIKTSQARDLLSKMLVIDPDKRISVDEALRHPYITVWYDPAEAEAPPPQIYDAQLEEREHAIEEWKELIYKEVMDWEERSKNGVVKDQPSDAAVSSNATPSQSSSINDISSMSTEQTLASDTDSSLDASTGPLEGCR", "assay": "JNK2 Assay (c-Jun phosphorylation, 32P-ATP filter plate)", "type": "biochemical", "conditions": "IC50 value in the JNK2 Assay, c-Jun phosphorylation reduced to 50% of control; GST-c-Jun(1-79), 11 μM ATP", "description": "(§1) To 10 μL of the test compound in 20%/DMSO/80% dilutien buffer consisting of 20 mM HELPS (pH 7.6), 0.1 mM; EDTA, 2.5 mM magnesium chloride, 0.004% Triton×100, 2 μg/mL leupeptin, 20 mM β-glycerolphosphate, 0.1 mM sodium vanadate, and 2 mM DTT in water is added 30 μL of 50 ng His6-JNK2 in the same dilution buffer. The mixture is preincubated for 30 minutes at room temperature. Sixty microliter of 10 μg GST-c-Jun(1-79) in assay buffer consisting of 20 mM HEPES (pH 7.6), 50 mM sodium chloride, 0.1 mM EDTA, 24 mM magnesium chloride, 1 mM DTT, 25 mM PNPP, 0.05% Triton×100, 11 μM ATP, and 0.5 μCi γ-^32P ATP in water is added and the reaction is allowed to proceed for 1 hour at room temperature. The c-Jun phosphorylation is terminated by addition of 150 μL of 12.5% trichloroacetic acid. After 30 minutes, the precipitate is harvested onto a filter plate, diluted with 50 μL of the scintillation fluid and quantified by a counter. The IC50 values are calculated as the concentration of the test compound at which the c-Jun phosphorylation is reduced to 50% of the control value.", "units": {"IC50": "µM"}, "values": [{"smiles": "O=C(c1ccc(Nc2nccc(-c3ccc(Cl)cc3)n2)cc1)N1CCC2(CC1)OCCO2", "note": "[Compound 17-139]", "IC50": "≤ 10"}]}, {"target": "T1, His6-JNK2", "assay": "JNK2 Assay (c-Jun phosphorylation, 32P-ATP filter plate)", "type": "biochemical", "conditions": "c-Jun phosphorylation reduced to 50% of control; GST-c-Jun(1-79), 11 μM ATP; read-out: IC50 value in the JNK2 Assay", "description": "as §1", "units": {"IC50": "µM"}, "values": [{"smiles": "CCOc1ccc(-c2ccnc(Nc3ccc(C(N)=O)cc3)n2)cn1", "note": "[Compound 3-23]", "IC50": "≤ 1"}, {"smiles": "CCN(CC)CCCNC(=O)c1ccc(Nc2nccc(-c3ccc(Cl)cc3)n2)cc1", "note": "[Compound 17-153]", "IC50": "≤ 10"}, {"smiles": "O=C(NCCCN1CCCC1=O)c1ccc(Nc2nccc(-c3ccc(Cl)cc3)n2)cc1", "note": "[Compound 17-54]", "IC50": "≤ 10"}, {"smiles": "O=C(Nc1nc2ccccc2[nH]1)c1ccc(Nc2nccc(-c3ccc(Cl)cc3)n2)cc1", "note": "[Compound 17-121]", "IC50": "≤ 10"}, {"smiles": "CN(C)CCCNC(=O)c1ccc(Nc2nccc(-c3ccc(Cl)cc3)n2)cc1", "note": "[Compound 17-154]", "IC50": "≤ 1"}, {"smiles": "O=C(c1ccc(Nc2nccc(-c3ccc(Cl)cc3)n2)cc1)N1CCN(c2ccccn2)CC1", "note": "[Compound 17-148]", "IC50": "≤ 10"}, {"smiles": "O=C(c1ccc(Nc2nccc(-c3ccc(Cl)cc3)n2)cc1)N1CCN(c2ccc(F)cc2)CC1", "note": "[Compound 17-149]", "IC50": "≤ 10"}, {"smiles": "CN1CCCC1CCNC(=O)c1ccc(Nc2nccc(-c3ccc(Cl)cc3)n2)cc1", "note": "(stereo not drawn) [Compound 17-152]", "IC50": "≤ 10"}, {"smiles": "O=C(c1ccc(Nc2nccc(-c3ccc(Cl)cc3)n2)cc1)N1CCN(CCO)CC1", "note": "[Compound 17-215]", "IC50": "≤ 10"}, {"smiles": "CCN(C(C)=O)C1CCN(C(=O)c2ccc(Nc3nccc(-c4ccc(Cl)cc4)n3)cc2)C1", "note": "(stereo not drawn) [Compound 17-162]", "IC50": "≤ 10"}, {"smiles": "O=C(c1ccc(Nc2nccc(-c3ccc(Cl)cc3)n2)cc1)N1CCN(c2ccc([N+](=O)[O-])cc2)CC1", "note": "[Compound 17-136]", "IC50": "≤ 10"}, {"smiles": "CC(=O)N1CCN(C(=O)c2ccc(Nc3nccc(-c4ccc(Cl)cc4)n3)cc2)CC1", "note": "[Compound 17-129]", "IC50": "≤ 1"}, {"smiles": "COc1ccccc1N1CCN(C(=O)c2ccc(Nc3nccc(-c4ccc(Cl)cc4)n3)cc2)CC1", "note": "[Compound 17-135]", "IC50": "≤ 10"}, {"smiles": "O=C(c1ccc(Nc2nccc(-c3ccc(Cl)cc3)n2)cc1)N1CCN(c2ccccc2)CC1", "note": "[Compound 17-158]", "IC50": "≤ 10"}, {"smiles": "O=CN1CCN(C(=O)c2ccc(Nc3nccc(-c4ccc(Cl)cc4)n3)cc2)CC1", "note": "[Compound 17-131]", "IC50": "≤ 10"}, {"smiles": "O=C(NCCCN1CCOCC1)c1ccc(Nc2nccc(-c3ccc(Cl)cc3)n2)cc1", "note": "[Compound 17-86]", "IC50": "≤ 10"}, {"smiles": "NC(=O)c1ccc(Nc2nccc(-c3ccc(Cl)cc3)n2)cc1", "note": "[Compound 1, 4-{[4-(4-Chlorophenyl)pyrimidin-2-yl]amino}benzamide]", "IC50": "≤ 10"}, {"smiles": "O=C(c1ccc(Nc2nccc(-c3ccc(Cl)cc3)n2)cc1)N1CCN(c2cccc(C(F)(F)F)c2)CC1", "note": "[Compound 17-143]", "IC50": "≤ 10"}, {"smiles": "NC(=O)c1ccc(Nc2nccc(-c3ccc([N+](=O)[O-])cc3)n2)cc1", "note": "[Compound 3-27]", "IC50": "≤ 10"}, {"smiles": "CC(=O)NC1CCN(C(=O)c2ccc(Nc3nccc(-c4ccc(Cl)cc4)n3)cc2)CC1", "note": "[Compound 20-1]", "IC50": "≤ 1"}, {"smiles": "O=C(c1ccc(Nc2nccc(-c3ccc(Cl)cc3)n2)cc1)N1CCC(O)CC1", "note": "[Compound 17-20]", "IC50": "≤ 1"}, {"smiles": "O=C(NC1CCN(C(=O)c2ccc(Nc3nccc(-c4ccc(Cl)cc4)n3)cc2)CC1)c1cccs1", "note": "[Compound 20-3]", "IC50": "≤ 1"}, {"smiles": "O=C(c1ccc(Nc2nccc(-c3ccc(Cl)cc3)n2)cc1)N1CCN(Cc2cccnc2)CC1", "note": "[Compound 17-161]", "IC50": "≤ 10"}, {"smiles": "Cc1noc(C)c1C(=O)NC1CCN(C(=O)c2ccc(Nc3nccc(-c4ccc(Cl)cc4)n3)cc2)CC1", "note": "[Compound 20-2]", "IC50": "≤ 10"}, {"smiles": "CN1CCN(CCCSc2ccc(-c3ccnc(Nc4ccc(C(N)=O)cc4)n3)cc2)CC1", "note": "[Compound 3-12]", "IC50": "≤ 10"}, {"smiles": "O=C(c1ccc(Nc2nccc(-c3ccc(Cl)cc3)n2)cc1)N1CCC(O)C1", "note": "(stereo not drawn) [Compound 17-28]", "IC50": "≤ 10"}, {"smiles": "O=C(c1ccc(Nc2nccc(-c3ccc(SCCCO)cc3)n2)cc1)N1CCN(C(=O)c2ccco2)CC1", "note": "[Compound 17-34]", "IC50": "≤ 1"}, {"smiles": "O=C(c1ccc(Nc2nccc(-c3ccc(Cl)cc3)n2)cc1)N1CCC(N2CCCCC2)CC1", "note": "[Compound 17-169]", "IC50": "≤ 1"}, {"smiles": "NC(=O)c1ccc(Nc2nccc(-c3ccc(C(=O)O)cc3)n2)cc1", "note": "[Compound 3-40]", "IC50": "≤ 1"}]}]}
